Data published in ChEMBL document CHEMBL1201862, “PubChem BioAssay data set” (2004).
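The compound was tested at five concentrations on cells cultured in 96-well plates, with a 48-hour exposure period. GI50 marks 50% less growth.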 Active and inactive are the calls of the source. Rule as the data show it: active = GI50 up to about 1.1 µM and inactive = higher.

What was measured:
Assay in all cases: NCI tumour cell line growth inhibition, 48 h
CCRF-CEM = system: CCRF-CEM
NCI-H23 = system: NCI-H23
SW-620 = system: SW-620
HOP-92 = system: HOP-92
HCC 2998 = system: HCC 2998
SK-MEL-28 = system: SK-MEL-28
SN12C = system: SN12C
RXF 393 = system: RXF 393
SNB-75 = system: SNB-75
OVCAR-8 = system: OVCAR-8
786-0 = system: 786-0
T47D = system: T47D
MCF7 = system: MCF7
OVCAR-4 = system: OVCAR-4
PC-3 = system: PC-3
Hs-578T = system: Hs-578T
CAKI-1 = system: CAKI-1
OVCAR-5 = system: OVCAR-5
NCI-H226 = system: NCI-H226
MDA-N = system: MDA-N
BT-549 = system: BT-549
ACHN = system: ACHN
HT-29 = system: HT-29
SF-268 = system: SF-268
SR = system: SR
SK-MEL-5 = system: SK-MEL-5
SK-MEL-2 = system: SK-MEL-2
DU-145 = system: DU-145
MDA-MB-231 = system: MDA-MB-231
UO-31 = system: UO-31
MOLT-4 = system: MOLT-4
IGROV-1 = system: IGROV-1
Malme-3M = system: Malme-3M
HCT-15 = system: HCT-15
UACC-257 = system: UACC-257
KM12 = system: KM12
M14 = system: M14
EKVX = system: EKVX
HCT-116 = system: HCT-116
NCI-H460 = system: NCI-H460
NCI-H522 = system: NCI-H522
UACC-62 = system: UACC-62
COLO 205 = system: COLO 205
SNB-19 = system: SNB-19
A549 = system: A549
TK-10 = system: TK-10
RPMI-8226 = system: RPMI-8226
MDA-MB-435 = system: MDA-MB-435
K562 = system: K562
NCI/ADR-RES = system: NCI/ADR-RES
SF-539 = system: SF-539
LOX IMVI = system: LOX IMVI
U-251 = system: U-251
A498 = system: A498
HL-60 = system: HL-60
HOP-62 = system: HOP-62
OVCAR-3 = system: OVCAR-3
SK-OV-3 = system: SK-OV-3
SF-295 = system: SF-295

Cc1ccc2c(c1)C=CC(C#N)N2C(=O)Oc1ccccc1 (stereo not given)
GI50 (CCRF-CEM): 17.2 µM (inactive) | GI50 (NCI-H23): 19.5 µM (inactive) | GI50 (SW-620): 30.5 µM (inactive) | GI50 (HOP-92): 30.2 µM (inactive) | GI50 (HCC 2998): 16.6 µM (inactive) | GI50 (SK-MEL-28): 77.8 µM (inactive) | GI50 (SN12C): 35.8 µM (inactive) | GI50 (RXF 393): 37.7 µM (inactive) | GI50 (SNB-75): 40.6 µM (inactive) | GI50 (OVCAR-8): 17.4 µM (inactive) | GI50 (786-0): 43.7 µM (inactive) | GI50 (T47D): 20.8 µM (inactive) | GI50 (MCF7): 19.7 µM (inactive) | GI50 (OVCAR-4): 24.7 µM (inactive) | GI50 (PC-3): 26.3 µM (inactive) | GI50 (Hs-578T): 41.6 µM (inactive) | GI50 (CAKI-1): 57.4 µM (inactive) | GI50 (OVCAR-5): 61.4 µM (inactive) | GI50 (NCI-H226): 31 µM (inactive) | GI50 (MDA-N): 29 µM (inactive) | GI50 (BT-549): 22.8 µM (inactive) | GI50 (ACHN): 27 µM (inactive) | GI50 (HT-29): 18.7 µM (inactive) | GI50 (SF-268): 29.9 µM (inactive) | GI50 (SR): 19.4 µM (inactive) | GI50 (SK-MEL-5): 24.3 µM (inactive) | GI50 (SK-MEL-2): 22.7 µM (inactive) | GI50 (DU-145): 17.9 µM (inactive) | GI50 (MDA-MB-231): 38.9 µM (inactive) | GI50 (UO-31): 27.7 µM (inactive) | GI50 (MOLT-4): 19.6 µM (inactive) | GI50 (IGROV-1): 36 µM (inactive) | GI50 (Malme-3M): 33 µM (inactive) | GI50 (HCT-15): 21.1 µM | GI50 (UACC-257): 39.8 µM (inactive) | GI50 (KM12): 17.1 µM (inactive) | GI50 (M14): 40.8 µM (inactive) | GI50 (EKVX): 18.1 µM (inactive) | GI50 (HCT-116): 37.9 µM (inactive) | GI50 (NCI-H460): 29.6 µM (inactive) | GI50 (NCI-H522): 16.3 µM (inactive) | GI50 (UACC-62): 31.4 µM (inactive) | GI50 (COLO 205): 25.9 µM (inactive) | GI50 (SNB-19): 31.8 µM (inactive) | GI50 (A549): 29.5 µM (inactive) | GI50 (TK-10): 31 µM (inactive) | GI50 (RPMI-8226): 17.9 µM (inactive) | GI50 (MDA-MB-435): 14.5 µM (inactive) | GI50 (K562): 23.7 µM (inactive) | GI50 (NCI/ADR-RES): 20.2 µM (inactive) | GI50 (SF-539): 60.7 µM (inactive) | GI50 (LOX IMVI): 20.6 µM (inactive) | GI50 (U-251): 23.7 µM (inactive) | GI50 (A498): 20.6 µM (inactive) | GI50 (HL-60): 18.9 µM (inactive)

C#C[C@]1(O)CC[C@H]2[C@@H]3CCC4=C/C(=N/OC(=O)c5cccc6cc7ccccc7nc56)CC[C@@H]4[C@H]3CC[C@@]21CC
GI50 (CCRF-CEM): 52.2 µM (inactive) | GI50 (NCI-H23): > 100 µM (inactive) | GI50 (SW-620): > 100 µM (inactive) | GI50 (HOP-92): > 100 µM (inactive) | GI50 (HCC 2998): > 100 µM (inactive) | GI50 (SK-MEL-28): > 100 µM (inactive) | GI50 (SN12C): > 100 µM (inactive) | GI50 (RXF 393): > 100 µM (inactive) | GI50 (SNB-75): > 100 µM (inactive) | GI50 (OVCAR-8): > 100 µM (inactive) | GI50 (786-0): > 100 µM (inactive) | GI50 (T47D): 33.8 µM (inactive) | GI50 (MCF7): 76 µM (inactive) | GI50 (OVCAR-4): > 100 µM (inactive) | GI50 (PC-3): > 100 µM (inactive) | GI50 (HOP-62): > 100 µM (inactive) | GI50 (Hs-578T): > 100 µM (inactive) | GI50 (OVCAR-3): > 100 µM (inactive) | GI50 (CAKI-1): > 100 µM (inactive) | GI50 (OVCAR-5): > 100 µM (inactive) | GI50 (NCI-H226): > 100 µM (inactive) | GI50 (MDA-N): > 100 µM (inactive) | GI50 (BT-549): > 100 µM (inactive) | GI50 (ACHN): > 100 µM (inactive) | GI50 (HT-29): > 100 µM (inactive) | GI50 (SF-268): > 100 µM (inactive) | GI50 (SR): 44.4 µM (inactive) | GI50 (SK-MEL-5): > 100 µM (inactive) | GI50 (SK-MEL-2): > 100 µM (inactive) | GI50 (DU-145): > 100 µM (inactive) | GI50 (MDA-MB-231): > 100 µM (inactive) | GI50 (MOLT-4): > 100 µM (inactive) | GI50 (IGROV-1): > 100 µM (inactive) | GI50 (HCT-15): > 100 µM | GI50 (UACC-257): > 100 µM (inactive) | GI50 (KM12): > 100 µM (inactive) | GI50 (M14): > 100 µM (inactive) | GI50 (SK-OV-3): > 100 µM (inactive) | GI50 (HCT-116): > 100 µM (inactive) | GI50 (NCI-H460): > 100 µM (inactive) | GI50 (UACC-62): > 100 µM (inactive) | GI50 (COLO 205): 49.7 µM (inactive) | GI50 (SNB-19): > 100 µM (inactive) | GI50 (A549): > 100 µM (inactive) | GI50 (RPMI-8226): > 100 µM (inactive) | GI50 (MDA-MB-435): > 100 µM (inactive) | GI50 (K562): > 100 µM (inactive) | GI50 (NCI/ADR-RES): > 100 µM (inactive) | GI50 (SF-539): > 100 µM (inactive) | GI50 (LOX IMVI): > 100 µM (inactive) | GI50 (U-251): > 100 µM (inactive) | GI50 (A498): > 100 µM (inactive) | GI50 (HL-60): > 100 µM (inactive)

O=C(C/C(=N/O)C(F)(F)F)c1cccs1
GI50 (CCRF-CEM): > 100 µM (inactive) | GI50 (NCI-H23): > 100 µM (inactive) | GI50 (SW-620): > 100 µM (inactive) | GI50 (HOP-92): > 100 µM (inactive) | GI50 (HCC 2998): > 100 µM (inactive) | GI50 (SK-MEL-28): > 100 µM (inactive) | GI50 (SN12C): > 100 µM (inactive) | GI50 (RXF 393): > 100 µM (inactive) | GI50 (SNB-75): > 100 µM (inactive) | GI50 (OVCAR-8): > 100 µM (inactive) | GI50 (786-0): > 100 µM (inactive) | GI50 (T47D): > 100 µM (inactive) | GI50 (MCF7): > 100 µM (inactive) | GI50 (OVCAR-4): > 100 µM (inactive) | GI50 (PC-3): > 100 µM (inactive) | GI50 (HOP-62): > 100 µM (inactive) | GI50 (Hs-578T): > 100 µM (inactive) | GI50 (OVCAR-3): 67.8 µM (inactive) | GI50 (CAKI-1): > 100 µM (inactive) | GI50 (OVCAR-5): > 100 µM (inactive) | GI50 (NCI-H226): > 100 µM (inactive) | GI50 (MDA-N): > 100 µM (inactive) | GI50 (BT-549): > 100 µM (inactive) | GI50 (ACHN): > 100 µM (inactive) | GI50 (HT-29): > 100 µM (inactive) | GI50 (SF-268): > 100 µM (inactive) | GI50 (SR): > 100 µM (inactive) | GI50 (SK-MEL-5): > 100 µM (inactive) | GI50 (SK-MEL-2): 30.8 µM (inactive) | GI50 (DU-145): > 100 µM (inactive) | GI50 (MDA-MB-231): > 100 µM (inactive) | GI50 (UO-31): > 100 µM (inactive) | GI50 (MOLT-4): > 100 µM (inactive) | GI50 (IGROV-1): > 100 µM (inactive) | GI50 (HCT-15): > 100 µM | GI50 (UACC-257): > 100 µM (inactive) | GI50 (KM12): > 100 µM (inactive) | GI50 (M14): > 100 µM (inactive) | GI50 (SK-OV-3): 76.2 µM (inactive) | GI50 (EKVX): > 100 µM (inactive) | GI50 (HCT-116): > 100 µM (inactive) | GI50 (NCI-H460): > 100 µM (inactive) | GI50 (UACC-62): > 100 µM (inactive) | GI50 (COLO 205): > 100 µM (inactive) | GI50 (SF-295): > 100 µM (inactive) | GI50 (SNB-19): 50 µM (inactive) | GI50 (A549): > 100 µM (inactive) | GI50 (TK-10): > 100 µM (inactive) | GI50 (RPMI-8226): > 100 µM (inactive) | GI50 (MDA-MB-435): > 100 µM (inactive) | GI50 (K562): > 100 µM (inactive) | GI50 (NCI/ADR-RES): > 100 µM (inactive) | GI50 (SF-539): > 100 µM (inactive) | GI50 (LOX IMVI): > 100 µM (inactive) | GI50 (U-251): > 100 µM (inactive) | GI50 (A498): > 100 µM (inactive) | GI50 (HL-60): > 100 µM (inactive)
